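At the GI50, growth is halved. TGI denotes the concentration required for complete inhibition of growth.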
Assays:
Assay in all cases: NCI tumour cell line growth inhibition, 384-well format
786-0 renal = test system: 786-0 renal
A498 renal = test system: A498 renal
A549 NSCLC = test system: A549 NSCLC
ACHN renal = test system: ACHN renal
BT-549 breast = test system: BT-549 breast
CAKI-1 renal = test system: CAKI-1 renal
CCRF-CEM leukemia = test system: CCRF-CEM leukemia
COLO 205 colon = test system: COLO 205 colon
DU-145 prostate = test system: DU-145 prostate
EKVX NSCLC = test system: EKVX NSCLC
HCC-2998 colon = test system: HCC-2998 colon
HCT-116 colon = test system: HCT-116 colon
HCT-15 colon = test system: HCT-15 colon
HL-60(TB) leukemia = test system: HL-60(TB) leukemia
HOP-62 NSCLC = test system: HOP-62 NSCLC
HOP-92 NSCLC = test system: HOP-92 NSCLC
HS 578T breast = test system: HS 578T breast
HT29 colon = test system: HT29 colon
IGROV1 ovarian = test system: IGROV1 ovarian
K-562 leukemia = test system: K-562 leukemia
KM12 colon = test system: KM12 colon
M14 melanoma = test system: M14 melanoma
MALME-3M melanoma = test system: MALME-3M melanoma
MCF7 breast = test system: MCF7 breast
MDA-MB-231 breast = test system: MDA-MB-231 breast
MDA-MB-435 melanoma = test system: MDA-MB-435 melanoma
MDA-MB-468 breast = test system: MDA-MB-468 breast
MOLT-4 leukemia = test system: MOLT-4 leukemia
NCI-H226 lung = test system: NCI-H226 lung
NCI-H23 lung = test system: NCI-H23 lung
NCI-H322M lung = test system: NCI-H322M lung
NCI-H460 NSCLC = test system: NCI-H460 NSCLC
NCI-H522 lung = test system: NCI-H522 lung
NCI/ADR-RES ovarian = test system: NCI/ADR-RES ovarian
OVCAR-3 ovarian = test system: OVCAR-3 ovarian
OVCAR-4 ovarian = test system: OVCAR-4 ovarian
OVCAR-5 ovarian = test system: OVCAR-5 ovarian
OVCAR-8 ovarian = test system: OVCAR-8 ovarian
PC-3 prostate = test system: PC-3 prostate
RPMI-8226 leukemia = test system: RPMI-8226 leukemia
RXF 393 renal = test system: RXF 393 renal
SF-268 CNS = test system: SF-268 CNS
SF-295 CNS = test system: SF-295 CNS
SF-539 CNS = test system: SF-539 CNS
SK-MEL-2 melanoma = test system: SK-MEL-2 melanoma
SK-MEL-28 melanoma = test system: SK-MEL-28 melanoma
SK-MEL-5 melanoma = test system: SK-MEL-5 melanoma
SK-OV-3 ovarian = test system: SK-OV-3 ovarian
SN12C renal = test system: SN12C renal
SNB-19 CNS = test system: SNB-19 CNS
SNB-75 CNS = test system: SNB-75 CNS
SR leukemia = test system: SR leukemia
SW-620 colon = test system: SW-620 colon
T-47D breast = test system: T-47D breast
TK-10 renal = test system: TK-10 renal
U251 glioblastoma = test system: U251 glioblastoma
UACC-257 melanoma = test system: UACC-257 melanoma
UACC-62 melanoma = test system: UACC-62 melanoma

O=C1CC(c2c[nH]c3ccc(F)cc23)C(=O)N1 (stereo unspecified)
GI50 ([…]-0 renal): > 100 µM | TGI (786-0 renal): > 100 µM | GI50 (A498 renal): > 100 µM | TGI (A498 renal): > 100 µM | GI50 (A549 NSCLC): > 100 µM | TGI (A549 NSCLC): > 100 µM | GI50 (ACHN renal): > 100 µM | TGI (ACHN renal): > 100 µM | GI50 (BT-549 breast): > 100 µM | TGI (BT-549 breast): > 100 µM | GI50 (CAKI-1 renal): > 100 µM | TGI (CAKI-1 renal): > 100 µM | GI50 (CCRF-CEM leukemia): > 100 µM | TGI (CCRF-CEM leukemia): > 100 µM | GI50 (COLO 205 colon): > 100 µM | TGI (COLO 205 colon): > 100 µM | GI50 (DU-145 prostate): > 100 µM | TGI (DU-145 prostate): > 100 µM | GI50 (EKVX NSCLC): > 100 µM | TGI (EKVX NSCLC): > 100 µM | GI50 (HCC-2998 colon): > 100 µM | TGI (HCC-2998 colon): > 100 µM | GI50 (HCT-116 colon): > 100 µM | TGI (HCT-116 colon): > 100 µM | GI50 (HCT-15 colon): > 100 µM | TGI (HCT-15 colon): > 100 µM | GI50 (HL-60(TB) leukemia): > 100 µM | TGI (HL-60(TB) leukemia): > 100 µM | GI50 (HOP-62 NSCLC): > 100 µM | TGI (HOP-62 NSCLC): > 100 µM | GI50 (HOP-92 NSCLC): > 100 µM | TGI (HOP-92 NSCLC): > 100 µM | GI50 (HS 578T breast): > 100 µM | TGI (HS 578T breast): > 100 µM | GI50 (HT29 colon): > 100 µM | TGI (HT29 colon): > 100 µM | GI50 (IGROV1 ovarian): > 100 µM | TGI (IGROV1 ovarian): > 100 µM | GI50 (K-562 leukemia): > 100 µM | TGI (K-562 leukemia): > 100 µM | GI50 (KM12 colon): > 100 µM | TGI (KM12 colon): > 100 µM | GI50 (M14 melanoma): > 100 µM | TGI (M14 melanoma): > 100 µM | GI50 (MALME-3M melanoma): > 100 µM | TGI (MALME-3M melanoma): > 100 µM | GI50 (MCF7 breast): > 100 µM | TGI (MCF7 breast): > 100 µM | GI50 (MDA-MB-231 breast): > 100 µM | TGI (MDA-MB-231 breast): > 100 µM | GI50 (MDA-MB-435 melanoma): > 100 µM | TGI (MDA-MB-435 melanoma): > 100 µM | GI50 (MDA-MB-468 breast): > 100 µM | TGI (MDA-MB-468 breast): > 100 µM | GI50 (MOLT-4 leukemia): > 100 µM | TGI (MOLT-4 leukemia): > 100 µM | GI50 (NCI-H226 lung): > 100 µM | TGI (NCI-H226 lung): > 100 µM | GI50 (NCI-H23 lung): > 100 µM | TGI (NCI-H23 lung): > 100 µM | GI50 (NCI-H322M lung): > 100 µM | TGI (NCI-H322M lung): > 100 µM | GI50 (NCI-H460 NSCLC): > 100 µM | TGI (NCI-H460 NSCLC): > 100 µM | GI50 (NCI-H522 lung): > 100 µM | TGI (NCI-H522 lung): > 100 µM | GI50 (NCI/ADR-RES ovarian): > 100 µM | TGI (NCI/ADR-RES ovarian): > 100 µM | GI50 (OVCAR-3 ovarian): > 100 µM | TGI (OVCAR-3 ovarian): > 100 µM | GI50 (OVCAR-4 ovarian): > 100 µM | TGI (OVCAR-4 ovarian): > 100 µM | GI50 (OVCAR-5 ovarian): > 100 µM | TGI (OVCAR-5 ovarian): > 100 µM | GI50 (OVCAR-8 ovarian): > 100 µM | TGI (OVCAR-8 ovarian): > 100 µM | GI50 (PC-3 prostate): > 100 µM | TGI (PC-3 prostate): > 100 µM | GI50 (RPMI-8226 leukemia): > 100 µM | TGI (RPMI-8226 leukemia): > 100 µM | GI50 (RXF 393 renal): > 100 µM | TGI (RXF 393 renal): > 100 µM | GI50 (SF-268 CNS): > 100 µM | TGI (SF-268 CNS): > 100 µM | GI50 (SF-295 CNS): > 100 µM | TGI (SF-295 CNS): > 100 µM | GI50 (SF-539 CNS): > 100 µM | TGI (SF-539 CNS): > 100 µM | GI50 (SK-MEL-2 melanoma): > 100 µM | TGI (SK-MEL-2 melanoma): > 100 µM | GI50 (SK-MEL-28 melanoma): > 100 µM | TGI (SK-MEL-28 melanoma): > 100 µM | GI50 (SK-MEL-5 melanoma): > 100 µM | TGI (SK-MEL-5 melanoma): > 100 µM | GI50 (SK-OV-3 ovarian): > 100 µM | TGI (SK-OV-3 ovarian): > 100 µM | GI50 (SN12C renal): > 100 µM | TGI (SN12C renal): > 100 µM | GI50 (SNB-19 CNS): > 100 µM | TGI (SNB-19 CNS): > 100 µM | GI50 (SNB-75 CNS): > 100 µM | TGI (SNB-75 CNS): > 100 µM | GI50 (SR leukemia): > 100 µM | TGI (SR leukemia): > 100 µM | GI50 (SW-620 colon): > 100 µM | TGI (SW-620 colon): > 100 µM | GI50 (T-47D breast): > 100 µM | TGI (T-47D breast): > 100 µM | GI50 (TK-10 renal): > 100 µM | TGI (TK-10 renal): > 100 µM | GI50 (U251 glioblastoma): > 100 µM | TGI (U251 glioblastoma): > 100 µM | GI50 (UACC-257 melanoma): > 100 µM | TGI (UACC-257 melanoma): > 100 µM | GI50 (UACC-62 melanoma): > 100 µM | TGI (UACC-62 melanoma): > 100 µM

From PubChem BioAssay (NCI)
